In patent US4197299A, “Anti-hypertensive derivatives of ergoline-2-thioethers and their sulphoxides” (priority 1977, dated 1980):
Structures can show the parent of a compound that is named as a salt. Where two headings read alike, the source gives them in different places.

Key:
BaCl2 = assay: Anti BaCl2 activity (spasmolytic) (e)
From the text: (e) Magnus Pflugers Arch. ges. Physiol., 102, 123,

adrenalin [1] = assay: Antiadrenalin activity in vitro (a); conditions: for adrenolytic activity (in words): as seen from the table (in vitro and in vivo); for Antiadrenalin activity in vitro EC50: in vitro (a), adrenolytic
From the text: (a) J. Brugger, Helv. Physiol. Pharm. Acta 3, 117,
(c) G. Arcari & coll., Brit. J. Pharmacol. 34, 700,

triptamine = assay: Antitriptaminic activity in vivo (g); conditions: sc, read-out: Antitriptaminic activity in vivo ED50
From the text: (g) S. J. Corne et al., Brit. J. Pharmacol., 20, 106, 1963

5HT = assay: Anti 5HT activity in vitro (f); conditions: for anti-serotininic activity (in words): as seen from the table; for Anti 5HT activity in vitro EC50: in vitro (f)
adrenalin [2] = assay: Antiadrenalin activity in vivo (b)
From the text: (b) F. P. Luduena et al., Arch. Int. Pharmacodyn. 122, 111,
(d) G. Arcari et Coll., Experientia 28, 819,

[3] = Pharmacological properties, classical tests on laboratory animals; conditions: in vivo
From the text: The compounds claimed in the present invention show interesting pharmacological properties, evidenced by means of classical tests on laboratory animals at extremely low doses.

[4] = Antiasthmatic test (Goose, Immunology 16, 749, 1969); type: in vivo
Analgesic activity = type: in vivo; conditions: for analgesic activity (in words): in vivo; for ED100: sc
ptosis due to reserpine = assay: Antagonism to ptosis due to reserpine (antidepressive activity); type: in vivo; conditions: po
From the text: Antagonism to ptosis due to reserpine (B. M.

adrenalin [5] = conditions: iv, comparison value with reference (d) Arcari, Experientia 28, 819; cited from earlier work
adrenalin [6] = conditions: comparison value with reference (c) Arcari, Brit. J. Pharmacol. 34, 700; cited from earlier work
[7] = in vivo (b), iv, read-out: Antiadrenalin activity in vivo ED50

SMILES: CSc1[nH]c2cccc3c2c1C[C@@H]1[C@@H]3C[C@@H](COC(=O)N2CCCCC2)CN1C [Compound 9, D-6-methyl-2-methylthio-8beta(piperidinocarbonyloxymethyl)ergoline]
- Anti BaCl2 activity EC50 (BaCl2): 2200 ng/mL
- adrenolytic activity (in words) (adrenalin [1]): high
- Antiadrenalin activity in vitro EC50 (adrenalin [1]): 1.8 ng/mL
- ED50 (triptamine; in vivo (g)): 10 mg/kg
- anti-serotininic activity (in words) (5HT): high
- Anti 5HT activity in vitro EC50 (5HT): 1 ng/mL
- ED50 (adrenalin [2]; [7]): 0.031 mg/kg
- pharmacological properties (in words) [3]: broad spectrum of pharmacologycal properties

SMILES: CSc1[nH]c2cccc3c2c1C[C@@H]1[C@@H]3C[C@@H](COC(=O)N2CCCCCC2)CN1C [Compound 10, D-6-methyl-2-methylthio-8beta(perhydroazepinylcarbonyloxymethyl)ergoline]
- ED50 (adrenalin [2]; route not printed there, read-out: adrenolytic ED50): 0.02 mg/kg
- ED100 ([4]; po, per os): 1 mg/kg

SMILES: CSc1[nH]c2cccc3c2c1C[C@@H]1[C@@H]3C[C@@H](COC(=O)N2CCOCC2)CN1C [Compound 11, D-6-methyl-2-methylthio-8beta(morpholinocarbonyloxymethyl)ergoline]
- Anti BaCl2 activity EC50 (BaCl2): 10000 ng/mL
- adrenolytic activity (in words) (adrenalin [1]): high
- Antiadrenalin activity in vitro EC50 (adrenalin [1]): 1.3 ng/mL
- ED50 (triptamine; in vivo (g)): 0.05 mg/kg
- anti-serotininic activity (in words) (5HT): high
- Anti 5HT activity in vitro EC50 (5HT): 0.01 ng/mL
- ED50 (adrenalin [2]; [7]): 0.0188 mg/kg
- pharmacological properties (in words) [3]: broad spectrum of pharmacologycal properties

SMILES: CSc1c2c3c(cccc3n1C)[C@H]1C[C@@H](COC(=O)N(C)C)CN(C)[C@@H]1C2 [Compound 12, D-1,6-dimethyl-2-methylthio-8beta(dimethylaminocarbonyloxymethyl)ergoline maleate]
- analgesic activity (in words) (Analgesic activity): potent analgesic activity
- ED100 (Analgesic activity): 2.5 mg/kg
- ED100 (ptosis due to reserpine): 0.025 mg/kg

SMILES: CCN(CC)C(=O)OC[C@@H]1C[C@@H]2c3cccc4c3c(c(SC)n4C)C[C@H]2N(C)C1 [Compound 13, D-1.6-dimethyl-2-methylthio-8beta(diethylaminocarbonyloxymethyl)ergoline maleate]
- ED100 (ptosis due to reserpine): 0.5 mg/kg

SMILES: CSc1c2c3c(cccc3n1C)[C@H]1C[C@@H](COC(=O)N3CCCC3)CN(C)[C@@H]1C2 [Compound 14, D-1,6-dimethyl-2-methylthio-8beta(pyrrolidinocarbonyloxymethyl)ergoline ma leate]
- analgesic activity (in words) (Analgesic activity): potent analgesic activity
- ED100 (Analgesic activity): 5 mg/kg
- ED100 (ptosis due to reserpine): 0.025 mg/kg

SMILES: CSc1c2c3c(cccc3n1C)[C@H]1C[C@@H](COC(=O)N3CCCCC3)CN(C)[C@@H]1C2 [Compound 15, D-1,6-dimethyl-2-methylthio-8beta(piperidinocarbonyloxymethyl)ergolinemaleate]
- ED100 (ptosis due to reserpine): 0.01 mg/kg

SMILES: CSc1c2c3c(cccc3n1C)[C@H]1C[C@@H](COC(=O)N3CCCCCC3)CN(C)[C@@H]1C2 [Compound 16, D-1,6-dimethyl-2-methylthio-8beta(perhydroazepinylcarbonyloxymethyl)ergoline maleate]
- ED100 (ptosis due to reserpine): 0.1 mg/kg

SMILES: CSc1c2c3c(cccc3n1C)[C@H]1C[C@@H](COC(=O)N3CCOCC3)CN(C)[C@@H]1C2 [Compound 17, D-1,6-dimethyl-2-methylthio-8beta(morpholinecarbonyloxymethyl)ergoline]
- ED100 (ptosis due to reserpine): 0.5 mg/kg

SMILES: CCC(=O)O[C@](Cc1ccccc1)(c1ccccc1)[C@H](C)CN(C)C [D-propoxyphene, reference compound]
- ED100 (Analgesic activity): 10 mg/kg

SMILES: CN(C)CCCN1c2ccccc2CCc2ccccc21 [imipramine, reference compound]
- ED100 (ptosis due to reserpine): 25 mg/kg

SMILES: CN1C[C@H](CNC(=O)OCc2ccccc2)C[C@@H]2c3cccc4c3c(cn4C)C[C@H]21 [metergoline, reference compound]
- ED50 (triptamine): 0.062 mg/kg

SMILES: CO[C@]12C[C@@H](COC(=O)c3cncc(Br)c3)CN(C)[C@@H]1Cc1cn(C)c3cccc2c13 [nicergoline]
- Antiadrenalin activity in vivo ED50 (adrenalin [5]): 20 μg/kg/iv
- Antiadrenalin activity in vitro EC50 (adrenalin [6]): 7 ng/mL

SMILES: COc1ccc(Cc2nccc3cc(OC)c(OC)cc23)cc1OC [papaverine, reference compound]
- Anti BaCl2 activity EC50 (BaCl2): 8900 ng/mL

SMILES: O=C(O)c1cc(=O)c2c(OCC(O)COc3cccc4oc(C(=O)O)cc(=O)c34)cccc2o1 [sodium chromoglycate]
- ED100 ([4]; iv): 5 mg/kg
- antiasthmatic activity by route ([4]; parenteral versus oral route): active only by the parenteral route, not by the oral route
